# What was measured:
# [1] = test system: prostate cancer cell line (PC-3); assay: MTT cytotoxicity assay; format: cell-based, human; conditions: Homo sapiens
# Description: The MTT method for monitoring in vitro cytotoxicity was used with multiwell plates. Three human cell lines, namely prostate cancer cell line (PC-3), renal cancer cell line (UO-31), and breast cancer cell line (MCF-7) were obtained from the American Type Culture Collection ATCC, Manassas, VA, USA). The cells were trypsinized and seeded in 96 well plates with a density of 1.2 − 1.8 × 10,000 cells/well for 24 h at 37 °C. After treating the cells with five concentrations of compound 5c (0.01, 0.1, 1, 10, 100 µM), an MTT solution (Sigma Co., St. Louis, MO, USA) (5 mg/mL in phosphate buffer solution) was applied to each well and […]. The plates were cultivated in 5% CO2 for 4 h at 37 °C. Successively, the remaining formazan crystals were dissolved in 100 µl of DMSO, and the absorbance was determined with the ROBONIK P2000 spectrophotometer at a wavelength of 570 nm. The obtained values were analysed using Gen5 software (BioTek, UK). The proliferation percentage in each treated cell line was standardised based on their control wells. Both tests have been conducted in triplicate. The IC50 values were calculated using sigmoidal dose-response curve fitting models. […] Each test included a blank containing a complete medium without cells.
# [2] = test system: CYP17 enzyme; assay: CYP17 enzyme ELISA in mice prostate cancer model; format: in vivo; conditions: 5 mg/kg i.p., 5 days a week, ELISA of tissue (Mice testis)
# Description: (§1) A total of 16 mice from the TRAMP/FVB background ([…], male, average 45 days, average weight […], mice with prostate cancer) were taken and divided into 2 groups with 8 animals in each group. One group of mice was given a drug in 0.2 ml of DMSO and phosphate-buffered saline (1:10) ratio (5 mg/kg body weight, i.p., 5 days a week). The control group animals were treated with 0.2 ml of DMSO and phosphate-buffered saline (1:10) ratio. A total of eight mice, four animals from each group, were examined at 13 weeks of age, and the remaining animals from each group were examined at 20 weeks for prostate tumour development. Treatment was stopped 24 h before killing the animals.
# BioSource 2704060 96 assay kit is a sandwich enzyme immunoassay for in vitro quantitative measurement of CYP17 enzyme activity in mouse tissue homogenates, cell lysates, cell culture supernatant, and other biological fluids. Tested tissues were rinsed in ice-cold PBS to remove excess blood and weighed before homogenisation. The tissues were minced and homogenised in fresh lysis buffer with a glass homogeniser. (catalog: IS007, different lysis buffer needs to be chosen based on subcellular location of the target protein) (w:v = 1:20–1:50, e.g. 1 ml lysis buffer is added in 20–50 mg tissue sample) The resulting suspension was sonicated with an ultrasonic cell disrupter till the solution was clarified. The homogenates were centrifuged for 5 min at 10,000 × g, and the supernatant was collected. An Aliquot was assayed and stored at ≤ −20 °C.
# The assay sample and standard were incubated together with CYP-HRP conjugate in an appropriate number of microplates pre-coated with an antibody specific for the CYP17 enzyme for 1 h. After the incubation period, the wells were decanted and washed five times. The wells were then incubated with a substrate for the HRP enzyme. […] Colour intensity was measured spectrophotometrically at 450 nm in a microplate reader. […]
# Assay procedures: Wells for a standard, blank, and sample were prepared. […] The absorbance was measured immediately at 450 nm.
# [3] = test system: CYP17; conditions: Figure 1, known CYP17 inhibitors; cited from earlier work
# [4] = test system: plasma testosterone; assay: Testosterone ELISA assay in mice prostate cancer model; format: in vivo; conditions: 5 mg/kg i.p., 5 days a week, ELISA, 5 mg/kg
# Description: as §1
# The BioVendor mouse/rat testosterone ELISA assay is a competitive immunoassay for the measurement of testosterone in rat and mouse serum or plasma based on the principle of competitive binding. An unknown amount of testosterone present in the sample (plasma or serum) and a known amount of testosterone conjugated to horseradish peroxidase compete for the binding sites of testosterone antiserum coated to the wells of a microplate. The sample was incubated with the microplate for 1 h, then washed four times. The HRP substrate solution was added followed by the stop solution. Colour change has been observed, and the optical density was measured at 450 nm.
# Assay procedures: Sufficient number of microplate wells were prepared to accommodate standard and samples in duplicates. The standard, sample, and control (10 µL each) were dispensed with new disposable tips into appropriate wells. Incubation buffer 100 µL was dispensed into each well. Afterward, enzyme conjugate (50 µL) was added to each well and incubated for 60 min at room temperature on a microplate mixer. The content of the wells was discarded, and the wells were rinsed 4 times with diluted wash solution (300 µL per well). The substrate solution (200 µL) was added to each well and incubated in the dark without shaking for 30 min. The reaction was stopped by adding a stop solution (2 N hydrochloric acid solution, 50 µL) to each well. The absorbance of each well was determined at 450 nm.
# [5] = test system: WI-38 human cell line; assay: In vitro cytotoxicity on WI-38 human cell line (MTT); format: cell-based; conditions: WI-38 normal human cell line
# Description: Cell Line cells were obtained from American Type Culture Collection and were cultured using DMEM (Invitrogen/Life Technologies) supplemented with 10% FBS (Hyclone), 10 µg/ml of insulin (Sigma), and 1% penicillin-streptomycin. All of the other chemicals and reagents were obtained from Sigma or Invitrogen. Plate cells were incubated (cells density 1.2–1.8 × 10,000 cells/well) in a volume of 100 µL complete growth medium and 100 ul of the tested compound per well in a 96-well plate for 24 h before the MTT assay. The cultures were removed from the incubator into a laminar flow hood or other sterile work area followed by the addition of reconstituted MTT in an amount equal to 10% of the culture medium volume, then incubated for an additional 2 h. After the incubation period, cultures were removed from the incubator, and the resulted formazan crystals were dissolved by adding an amount of MTT solubilisation solution [M-8910] equal to the original culture medium volume, then the absorbance at a wavelength of 570 nm was measured. Finally, the IC50 of the tested compound compared to the reference was calculated using GraphPad Prism software.
# [6] = listed as Abireratone reference
# [7] = listed as abiraterone reference
compound,measurement,setting,value
"C[C@]12CC[C@H](O)CC1=CC[C@@H]1[C@@H]2CC[C@]2(C)C(c3cccnc3)=CC[C@@H]12 [Abiraterone, abiraterone, reference compound]",IC50,[1],8.3 µM
same,CYP17 enzyme aver. conc.,[2]; [6],10.72 nM
same,CYP17 enzyme aver. conc.,[2]; [7],10.72 ± 0.17 nM
same,IC50,[3],0.002 µM
same,Plasma testosterone aver. conc.,[4]; [6],13.79 nM
same,Plasma testosterone aver. conc.,[4]; [7],13.79 ± 0.33 nM
"CN[C@@H]1C[C@H]2O[C@@](C)([C@@H]1OC)n1c3ccccc3c3c4c(c5c6ccccc6n2c5c31)C(=O)NC4 [staurosporine, reference compound]",IC50,[1],5.1 µM
same,IC50,[5],19.2 µM
